Assay: Eclipse PK and dosimetry sub-study, 27 patients, cycle 1 biodistribution and dosimetry (SPECT/CT, OLINDA 2.2.3)
Type: in vivo, human
Conditions: for Absorbed Dose Mean (SD): ECLIPSE, after Cycle 1; for Absorbed Dose in Cycle 1, Mean / Absorbed Dose in Cycle 1, min: N = 16
From the text: Data Acquisition: All participating sites underwent a rigorous site setup process during which all dose calibrators, scanners, and gamma counters used in the sub-study were calibrated. Sites were allowed to enroll patients in the sub-study only after the completion and approval of all site setup processes by Invicro.
Patients underwent SPECT/CT imaging, with anatomical coverage typically extending from the salivary glands to the pelvis, following the administration of a targeted 7.4±10% GBq of ^177Lu-PSMA-I&T at cycle 1. SPECT/CT imaging was performed at four timepoints: 4 h, 24 h, 48 h, and 168 h post-injection. Additionally, a subset of patients imaged at Cycle 1 (16 out of 27), were also imaged at Cycle 3 (Table 7 in Appendix 1).
Image acquisition and reconstruction protocols were standardized across all imaging timepoints and patients at each site. Furthermore, each site consistently utilized the same SPECT/CT scanner throughout the duration of the study to ensure uniformity.
In general, raw projection data was acquired into a 128×128 matrix with medium energy general purpose (MEGP) collimation using a step and shoot acquisition mode, acquiring 60 projections per detector (180 degrees rotation per detector), 20 seconds per projection, with an acquisition zoom of 1.0, and a 20% (±10%) energy window centered over 208 keV.
A low-dose CT scan was performed prior to beginning the SPECT scan for attenuation correction. Sites were instructed to use the Institutional standard parameters for acquisition of the low-dose CT. Institutional standard reconstruction parameters were used. Scatter correction was required to be applied using a 20% (±10%) scatter window centered over 170 keV.
The imaging data was analysed using Invicro's VivoQuant software, a validated software used in a 21 CFR § 11-compliant workflow. The general quantification approach was based on the principles detailed in the Medical Internal Radiation Dose (MIRD) Pamphlet No. 16,^1 No 23,2 and No 26,3 as appropriate.
SPECT images were calibrated in units of Becquerel (Bq) using a calibration factor derived from a source of known activity, measured during site set up with the same acquisition and reconstruction parameters employed for patient imaging. A patient-specific calibration factor was also derived at each clinical time point after acquisition of the patient SPECT/CT. As a quality control measure, if the patient-specific calibration factor differed by more than 10% from the site set up calibration factor, an investigation was conducted.
Volume of interest (VOI) (kidneys, bladder, liver, lumbar vertebrae L2-L4, lacrimal glands, salivary glands [parotid and submandibular glands], and whole body) were delineated on each dataset by a trained image analyst. […] Organs were segmented either by drawing the entire contour of the organ, or by placing a sphere in a representative region of the organ and then multiplying by the organ's effective mass (based on patient's height and weight).^4 Segmentation methods for each organ are specified in Table 1 and were consistently applied to each patient.
Clearance of the radiopharmaceutical was derived from a data-appropriate fit of each organ's TAC. Depending on the TAC's shape, the data was fitted with the sum of one, two, or three exponentials, or using a rise and fall model. Fitting was performed with in-house Python software. TIACs were calculated through analytical integration of the curve fit extrapolated to infinity. […] A whole-body TAC was derived from delineating the imaged body. The remainder activity was determined by subtracting the cumulative organ TIACs from the whole body TIAC.
Organ TIACs were input into OLINDA 2.2.3 for the computation of organ and whole-body absorbed doses, using International Commission on Radiological Protection (ICRP)-103 weighing factors. The ICRP-89 derived male phantom was used for dose estimation. […]

[1] = Cycle 1, n = 26, patient 12-004 excluded
[2] = Lacrimal Glands (OLINDA sphere model)

## O=C([O-])CC[C@H](NC(=O)N[C@@H](CCCCNC(=O)CCCCCCC(=O)NCCCC[C@@H](NC(=O)[C@@H](Cc1ccccc1)NC(=O)[C@@H](Cc1ccc(O)c(I)c1)NC(=O)CC[C@H](C(=O)[O-])N1CCN(CC(=O)[O-])CCN(CC(=O)[O-])CCN(CC(=O)[O-])CC1)C(=O)[O-])C(=O)[O-])C(=O)[O-].[177Lu+3].[H+].[H+].[H+].[H+].[H+] [^177Lu-PSMA I&T, (3S,7S,26R,29R,32R,37R)-29-benzyl-32-(4-hydroxy-3-iodobenzyl)-5,13,20,28,31,34-hexaoxo-37-(4,7,10-tris(carboxymethyl)-1,4,7,10-tetraazacyclododecan-1-yl)-4,6,12,21,27,30,33-heptaazaheptatriacontane-1,3,7,26,37-pentacarboxylic acid; lutetium-177 (III)]
Bladder
  Absorbed Dose Mean (SD): 0.41 (0.05) Gy/GBq
Bone Marrow
  Absorbed Dose Mean (SD): 0.08 (0.12) Gy/GBq
Cycle 1, n = 26
  Absorbed Dose, Adrenals, Mean: 0.02 Gy/GBq
  Absorbed Dose, Adrenals, max: 0.08 Gy/GBq
  Absorbed Dose, Adrenals, median: 0.02 Gy/GBq
  Absorbed Dose, Adrenals, min: 0.01 Gy/GBq
  Absorbed Dose, Brain, Mean: 0.01 Gy/GBq
  Absorbed Dose, Brain, max: 0.07 Gy/GBq
  Absorbed Dose, Brain, median: 0.01 Gy/GBq
  Absorbed Dose, Brain, min: 0.00 Gy/GBq
  Absorbed Dose, Esophagus, Mean: 0.02 Gy/GBq
  Absorbed Dose, Esophagus, max: 0.07 Gy/GBq
  Absorbed Dose, Esophagus, median: 0.01 Gy/GBq
  Absorbed Dose, Esophagus, min: 0.00 Gy/GBq
  Absorbed Dose, Eyes, Mean: 0.01 Gy/GBq
  Absorbed Dose, Eyes, max: 0.07 Gy/GBq
  Absorbed Dose, Eyes, median: 0.01 Gy/GBq
  Absorbed Dose, Eyes, min: 0.00 Gy/GBq
  Absorbed Dose, Gallbladder wall, Mean: 0.02 Gy/GBq
  Absorbed Dose, Gallbladder wall, max: 0.07 Gy/GBq
  Absorbed Dose, Gallbladder wall, median: 0.01 Gy/GBq
  Absorbed Dose, Gallbladder wall, min: 0.00 Gy/GBq
  Absorbed Dose, Heart wall, Mean: 0.02 Gy/GBq
  Absorbed Dose, Heart wall, max: 0.07 Gy/GBq
  Absorbed Dose, Heart wall, median: 0.01 Gy/GBq
  Absorbed Dose, Heart wall, min: 0.00 Gy/GBq
  Absorbed Dose, Kidneys, Mean: 0.41 Gy/GBq
  Absorbed Dose, Kidneys, max: 0.81 Gy/GBq
  Absorbed Dose, Kidneys, median: 0.37 Gy/GBq
  Absorbed Dose, Kidneys, min: 0.17 Gy/GBq
  Absorbed Dose, Lacrimal Glands, Mean: 0.40 Gy/GBq
  Absorbed Dose, Lacrimal Glands, max: 1.19 Gy/GBq
  Absorbed Dose, Lacrimal Glands, median: 0.26 Gy/GBq
  Absorbed Dose, Lacrimal Glands, min: 0.04 Gy/GBq
  Absorbed Dose, Left colon, Mean: 0.47 Gy/GBq
  Absorbed Dose, Left colon, max: 1.53 Gy/GBq
  Absorbed Dose, Left colon, median: 0.41 Gy/GBq
  Absorbed Dose, Left colon, min: 0.01 Gy/GBq
  Absorbed Dose, Liver, Mean: 0.04 Gy/GBq
  Absorbed Dose, Liver, max: 0.10 Gy/GBq
  Absorbed Dose, Liver, median: 0.03 Gy/GBq
  Absorbed Dose, Liver, min: 0.01 Gy/GBq
  Absorbed Dose, Lungs, Mean: 0.01 Gy/GBq
  Absorbed Dose, Lungs, max: 0.07 Gy/GBq
  Absorbed Dose, Lungs, median: 0.01 Gy/GBq
  Absorbed Dose, Lungs, min: 0.00 Gy/GBq
  Absorbed Dose, Osteogenic cells, Mean: 0.05 Gy/GBq
  Absorbed Dose, Osteogenic cells, max: 0.29 Gy/GBq
  Absorbed Dose, Osteogenic cells, median: 0.02 Gy/GBq
  Absorbed Dose, Osteogenic cells, min: 0.00 Gy/GBq
  Absorbed Dose, Pancreas, Mean: 0.02 Gy/GBq
  Absorbed Dose, Pancreas, max: 0.07 Gy/GBq
  Absorbed Dose, Pancreas, median: 0.01 Gy/GBq
  Absorbed Dose, Pancreas, min: 0.00 Gy/GBq
  Absorbed Dose, Prostate, Mean: 0.02 Gy/GBq
  Absorbed Dose, Prostate, max: 0.07 Gy/GBq
  Absorbed Dose, Prostate, median: 0.01 Gy/GBq
  Absorbed Dose, Prostate, min: 0.01 Gy/GBq
  Absorbed Dose, Rectum, Mean: 0.44 Gy/GBq
  Absorbed Dose, Rectum, max: 1.46 Gy/GBq
  Absorbed Dose, Rectum, median: 0.39 Gy/GBq
  Absorbed Dose, Rectum, min: 0.01 Gy/GBq
  Absorbed Dose, Red Marrow, Mean: 0.08 Gy/GBq
  Absorbed Dose, Red Marrow, max: 0.49 Gy/GBq
  Absorbed Dose, Red Marrow, median: 0.03 Gy/GBq
  Absorbed Dose, Red Marrow, min: 0.00 Gy/GBq
  Absorbed Dose, Right Colon, max: 0.82 Gy/GBq
  Absorbed Dose, Right Colon, median: 0.22 Gy/GBq
  Absorbed Dose, Right Colon, min: 0.01 Gy/GBq
  Absorbed Dose, Right colon, Mean: 0.25 Gy/GBq
  Absorbed Dose, Small intestine, Mean: 0.05 Gy/GBq
  Absorbed Dose, Small intestine, max: 0.15 Gy/GBq
  Absorbed Dose, Small intestine, median: 0.04 Gy/GBq
  Absorbed Dose, Small intestine, min: 0.01 Gy/GBq
  Absorbed Dose, Spleen, Mean: 0.03 Gy/GBq
  Absorbed Dose, Spleen, max: 0.11 Gy/GBq
  Absorbed Dose, Spleen, median: 0.02 Gy/GBq
  Absorbed Dose, Spleen, min: 0.01 Gy/GBq
  Absorbed Dose, Stomach Wall, Mean: 0.02 Gy/GBq
  Absorbed Dose, Stomach Wall, max: 0.07 Gy/GBq
  Absorbed Dose, Stomach Wall, median: 0.01 Gy/GBq
  Absorbed Dose, Stomach Wall, min: 0.00 Gy/GBq
  Absorbed Dose, Testes, Mean: 0.01 Gy/GBq
  Absorbed Dose, Testes, max: 0.07 Gy/GBq
  Absorbed Dose, Testes, median: 0.01 Gy/GBq
  Absorbed Dose, Testes, min: 10.00 Gy/GBq
  Absorbed Dose, Thymus, Mean: 0.01 Gy/GBq
  Absorbed Dose, Thymus, max: 0.07 Gy/GBq
  Absorbed Dose, Thymus, median: 0.01 Gy/GBq
  Absorbed Dose, Thymus, min: 0.00 Gy/GBq
  Absorbed Dose, Thyroid, Mean: 0.01 Gy/GBq
  Absorbed Dose, Thyroid, max: 0.07 Gy/GBq
  Absorbed Dose, Thyroid, median: 0.01 Gy/GBq
  Absorbed Dose, Thyroid, min: 0.00 Gy/GBq
  Absorbed Dose, Total Body, Mean: 0.02 Gy/GBq
  Absorbed Dose, Total Body, max: 0.09 Gy/GBq
  Absorbed Dose, Total Body, median: 0.02 Gy/GBq
  Absorbed Dose, Total Body, min: 0.01 Gy/GBq
  Absorbed Dose, Urinary Bladder wall, Mean: 0.41 Gy/GBq
  Absorbed Dose, Urinary Bladder wall, max: 0.50 Gy/GBq
  Absorbed Dose, Urinary Bladder wall, median: 0.41 Gy/GBq
  Absorbed Dose, Urinary Bladder wall, min: 0.33 Gy/GBq
  absorbed dose, kidneys: 0.41±0.15 Gy/GBq
  absorbed dose, left colon: 0.47±0.31 Gy/GBq
  absorbed dose, rectum: 0.44±0.30 Gy/GBq
  absorbed dose, urinary bladder: 0.41±0.05 Gy/GBq
[1]
  Absorbed Dose, Salivary Glands, Mean: 0.19 Gy/GBq
  Absorbed Dose, Salivary Glands, max: 0.80 Gy/GBq
  Absorbed Dose, Salivary Glands, median: 0.15 Gy/GBq
  Absorbed Dose, Salivary Glands, min: 0.03 Gy/GBq
Heart
  Absorbed Dose Mean (SD): 0.02 (0.02) Gy/GBq
Kidneys
  Absorbed Dose Mean (SD): 0.41 (0.15) Gy/GBq
[2]
  Absorbed Dose in Cycle 1, Mean: 0.39 Gy/GBq
  Absorbed Dose in Cycle 1, min: 0.04 Gy/GBq
Lacrimal Glands
  Absorbed Dose Mean (SD): 0.40 (0.36) Gy/GBq
Left Colon
  Absorbed Dose Mean (SD): 0.47 (0.31) Gy/GBq
Liver
  Absorbed Dose Mean (SD): 0.04 (0.02) Gy/GBq
  Absorbed Dose in Cycle 1, min: 0.0 Gy/GBq
Right Colon
  Absorbed Dose Mean (SD): 0.25 (0.17) Gy/GBq
Salivary Glands
  Absorbed Dose Mean (SD): 0.19 (0.16) Gy/GBq
Spleen
  Absorbed Dose Mean (SD): 0.03 (0.02) Gy/GBq
Testes
  Absorbed Dose in Cycle 1, Mean: 0.0 Gy/GBq
Thyroid
  Absorbed Dose Mean (SD): 0.01 (0.02) Gy/GBq
Urinary Bladder wall
  Absorbed Dose in Cycle 1, Mean: 0.40 Gy/GBq
Cycle 1
  absorbed dose, lacrimal glands: 0.40±0.36 Gy/GBq
Cycle 1, image-based (L2-L4)
  mean absorbed dose, bone marrow (red marrow): 0.08±0.12 Gy/GBq
Cycle 1, patient 12-004 excluded
  absorbed dose, salivary glands: 0.19±0.16 Gy/GBq

From patent US20250041461A1, “[177LU] LUTETIUM-PSMA I&T COMPOSITION AND DOSIMETRY, KIT, METHOD OF MAKING, AND METHOD OF USING THEREOF” (Curium US LLC, priority 2023, published 2025)
